Two compounds from ChEMBL document CHEMBL4610120, “New Broad-Spectrum Antibiotics Containing a Pyrrolobenzodiazepine Ring with Activity against Multidrug-Resistant Gram-Negative Bacteria” (J Med Chem, 2020) can be followed below.

Data set [1] relates to Klebsiella pneumoniae. The experiment in a line: Antimicrobial activity against Klebsiella pneumoniae M6 assessed as mutation frequency at 4 times MIC measured after 48 hrs. The format is functional.
The subject of data set [2] is Acinetobacter baumannii. The experiment in a line: Bactericidal activity against Acinetobacter baumannii AYE assessed as reduction in viable bacterial count at 4 times MIC measured after 24 hrs by Miles-Misra dilution method based time-kill assay. It counts as functional, organism-based.
In data set [3] the test system is Klebsiella pneumoniae. The data set can be described thus: Bactericidal activity against multidrug-resistant Klebsiella pneumoniae NCTC 13438 assessed as viable bacterial count at 4 times MIC measured after 4 to 24 hrs by Miles-Misra dilution method based time-kill assay. The format is functional, organism-based.
The next data set deals with Escherichia coli. The experiment in a line: Antimicrobial activity against multidrug-resistant Escherichia coli NCTC 12923 assessed as mutation frequency at 4 times MIC measured after 48 hrs. It counts as functional.
The subject of data set [4] is Acinetobacter baumannii. The experiment in a line: Antimicrobial activity against Acinetobacter baumannii ATCC 17978 in presence of efflux pump inhibitor CCCP by microdilution broth method. It counts as functional.
Data set [5] has as its system Klebsiella pneumoniae. The data set can be described thus: Bactericidal activity against multidrug-resistant Klebsiella pneumoniae NCTC 13368 assessed as viable bacterial count at 4 times MIC measured after 4 to 24 hrs by Miles-Misra dilution method based time-kill assay. The format is functional, organism-based.
Data set [6] deals with Acinetobacter baumannii. The data set can be described thus: Ratio of MIC for multidrug-resistant Acinetobacter baumannii AYE to MIC for multidrug-resistant Acinetobacter baumannii AYE in presence of efflux pump inhibitor CCCP. It counts as functional.
For data set [7], the system named is Acinetobacter baumannii. The data set can be described thus: Ratio of MIC for multidrug-resistant Acinetobacter baumannii AYE to MIC for multidrug-resistant Acinetobacter baumannii AYE in presence of efflux pump inhibitor PAbetaN. It counts as functional.
Another data set deals with Staphylococcus aureus. The experiment in a line: Antibacterial activity against methicillin sensitive Staphylococcus aureus NCTC 6571 by microdilution broth method. The format is functional.
The subject of data set [8] is Acinetobacter baumannii. The experiment in a line: Bactericidal activity against Acinetobacter baumannii NCTC 13424 assessed as reduction in viable bacterial count at 4 times MIC measured after 24 hrs by Miles-Misra dilution method based time-kill assay. The format is functional, organism-based.
Data set [9] can be described thus: Ratio of MIC for Pseudomonas aeruginosa PAO1 to MIC for Pseudomonas aeruginosa harboring MexCD mutant. The format is functional.
Data set [10] has as its system Acinetobacter baumannii. The experiment in a line: Bactericidal activity against Acinetobacter baumannii ATCC 17978 assessed as reduction in viable bacterial count at 4 times MIC measured up to 24 hrs by Miles-Misra dilution method based time-kill assay. It counts as functional, organism-based.
Data set [11] deals with Klebsiella pneumoniae. The data set can be described thus: Antibacterial activity against multidrug-resistant Klebsiella pneumoniae NCTC 13368-7-R1 measured after 10 passages in presence of efflux pump inhibitor CCCP by microdilution broth method. The format is functional.
Data set [12] relates to Klebsiella pneumoniae. The experiment in a line: Antibacterial activity against multidrug-resistant Klebsiella pneumoniae NCTC 13368-7-R2 measured after 10 passages in presence of efflux pump inhibitor CCCP by microdilution broth method. It counts as functional.
Data set [13] relates to Klebsiella pneumoniae. The experiment in a line: Antimicrobial activity against multidrug-resistant Klebsiella pneumoniae NCTC 13368 in presence of membrane permeabilizer PMBN by microdilution broth method. The format is functional.
For data set [14], the system named is Acinetobacter baumannii. The data set can be described thus: Antimicrobial activity against multidrug-resistant Acinetobacter baumannii UKA2 by microdilution broth method. The format is functional.
Data set [15] has as its system Klebsiella pneumoniae. The experiment in a line: Antibacterial activity against multidrug-resistant Klebsiella pneumoniae NCTC 13368-7-R2 measured after 10 passages by microdilution broth method. It counts as functional.
In data set [16] the test system is Klebsiella pneumoniae. The experiment in a line: Antibacterial activity against multidrug-resistant Klebsiella pneumoniae NCTC 13368-7-R1 measured after 10 passages by microdilution broth method. It counts as functional.
Data set [17] in a line: Solubility of the compound at 32 mg/L. It counts as physicochemical.
Data set [18] concerns Acinetobacter baumannii. The experiment in a line: Bactericidal activity against Acinetobacter baumannii AYE assessed as reduction in viable bacterial count at 4 times MIC measured up to 24 hrs by Miles-Misra dilution method based time-kill assay. It counts as functional, organism-based.
In data set [19] the test system is Klebsiella pneumoniae. The data set can be described thus: Antibacterial activity against multidrug-resistant Klebsiella pneumoniae NCTC 13368-7-R1 measured after 10 passages in presence of efflux pump inhibitor PAbetaN by microdilution broth method. The format is functional.
Data set [20] has as its system Klebsiella pneumoniae. The experiment in a line: Antimicrobial activity against Klebsiella pneumoniae M6 by microdilution broth method. It counts as functional.
Data set [21] concerns Klebsiella pneumoniae. The experiment in a line: Ratio of MIC for multidrug-resistant Klebsiella pneumoniae NCTC 13368-7-R2 measured after 10 passages to MIC for multidrug-resistant Klebsiella pneumoniae NCTC 13368-7-R2 measured after 10 passages in presence of efflux pump inhibitor PAbetaN. The format is functional.
For data set [22], the system named is Klebsiella pneumoniae. The experiment in a line: Bactericidal activity against multidrug-resistant Klebsiella pneumoniae NCTC 13368 assessed as reduction in viable bacterial count at 4 times MIC measured after 24 hrs by Miles-Misra dilution method based time-kill assay. The format is functional, organism-based.
The subject of data set [23] is Acinetobacter baumannii. The experiment in a line: Antimicrobial activity against multidrug-resistant Acinetobacter baumannii NCTC 13302 by microdilution broth method. The format is functional.
In data set [24] the test system is Klebsiella pneumoniae. The data set can be described thus: Ratio of MIC for multidrug-resistant Klebsiella pneumoniae NCTC 13368-7-R2 measured after 10 passages to MIC for multidrug-resistant Klebsiella pneumoniae NCTC 13368-7-R2 measured after 10 passages in presence of membrane permeabilizer PMBN. It counts as functional.
The test system of data set [25] is Klebsiella pneumoniae. The data set can be described thus: Ratio of MIC for multidrug-resistant Klebsiella pneumoniae NCTC 13368-7-R1 measured after 10 passages to MIC for multidrug-resistant Klebsiella pneumoniae NCTC 13368-7-R1 measured after 10 passages in presence of membrane permeabilizer PMBN. The format is functional.
The test system of data set [26] is Klebsiella pneumoniae. The experiment in a line: Antimicrobial activity against multidrug-resistant Klebsiella pneumoniae 16 in presence of membrane permeabilizer PMBN by microdilution broth method. The format is functional.
Data set [27] deals with Klebsiella pneumoniae. The experiment in a line: Bactericidal activity against multidrug-resistant Klebsiella pneumoniae NCTC 13368 assessed as reduction in viable bacterial count at 4 times MIC measured after 6 hrs by Miles-Misra dilution method based time-kill assay. It counts as functional, organism-based.
For data set [28], the system named is Acinetobacter baumannii. The experiment in a line: Antimicrobial activity against multidrug-resistant Acinetobacter baumannii AYE in presence of efflux pump inhibitor CCCP by microdilution broth method. The format is functional.
For data set [29], the system named is Acinetobacter baumannii. The experiment in a line: Antimicrobial activity against multidrug-resistant Acinetobacter baumannii UKA7 by microdilution broth method. It counts as functional.
Data set [30] deals with Klebsiella pneumoniae. The experiment in a line: Antimicrobial activity against multidrug-resistant Klebsiella pneumoniae NCTC 13438 in presence of efflux pump inhibitor CCCP by microdilution broth method. It counts as functional.
In data set [31] the test system is Klebsiella pneumoniae. The data set can be described thus: Ratio of MIC for multidrug-resistant Klebsiella pneumoniae NCTC 13368-7-R1 measured after 10 passages to MIC for multidrug-resistant Klebsiella pneumoniae NCTC 13368-7-R1 measured after 10 passages in presence of efflux pump inhibitor PAbetaN. It counts as functional.
The test system of data set [32] is Klebsiella pneumoniae. The experiment in a line: Ratio of MIC for multidrug-resistant Klebsiella pneumoniae NCTC 13368 to MIC for multidrug-resistant Klebsiella pneumoniae NCTC 13368 in presence of membrane permeabilizer PMBN. It counts as functional.
For data set [33], the system named is Klebsiella pneumoniae. The data set can be described thus: Antimicrobial activity against multidrug-resistant Klebsiella pneumoniae NCTC 13368 by microdilution broth method. The format is functional.
For data set [34], the system named is Acinetobacter baumannii. The experiment in a line: Antimicrobial activity against multidrug-resistant Acinetobacter baumannii W1 by microdilution broth method. The format is functional.
Data set [35] deals with Klebsiella pneumoniae. The data set can be described thus: Antibacterial activity against multidrug-resistant Klebsiella pneumoniae NCTC 13368-7-R2 measured after 10 passages in presence of membrane permeabilizer PMBN by microdilution broth method. The format is functional.
The test system of data set [36] is Klebsiella pneumoniae. The experiment in a line: Antibacterial activity against multidrug-resistant Klebsiella pneumoniae NCTC 13368-7-R2 measured after 10 passages in presence of efflux pump inhibitor PAbetaN by microdilution broth method. The format is functional.
Data set [37] relates to Klebsiella pneumoniae. The experiment in a line: Bactericidal activity against multidrug-resistant Klebsiella pneumoniae NCTC 13438 assessed as reduction in viable bacterial count at 4 times MIC measured up to 24 hrs by Miles-Misra dilution method based time-kill assay. The format is functional, organism-based.
Data set [38] has as its system Acinetobacter baumannii. The experiment in a line: Bactericidal activity against Acinetobacter baumannii NCTC 13424 assessed as reduction in viable bacterial count at 4 times MIC measured up to 24 hrs by Miles-Misra dilution method based time-kill assay. The format is functional, organism-based.

Converted amounts (≈) assume the structure as drawn. The source made the active and inactive calls. The calls are words filed in the database; no cut-off is given here.

As for `COc1cc2c(cc1OCCCC(=O)Nc1cc(C(=O)Nc3ccc4sc(C(=O)N(C)C)cc4c3)n(C)c1)N=C[C@@H]1CCCN1C2=O`, the Activity with Klebsiella pneumoniae [1] is on record as 1 ×10⁻⁶ No_unit; in the data set with Klebsiella pneumoniae [3], “Below limit of detection”; in the data set with Escherichia coli, below 4.3 ×10⁻⁸ No_unit; in the data set on Klebsiella pneumoniae [5], “Below limit of detection”. Further, the outcome in the data set with Acinetobacter baumannii [2] and in the data set with Acinetobacter baumannii [8] was inactive. For the same compound, the MIC in the data set with Acinetobacter baumannii [4] came out at 0.25 µg/mL; in the data set on Staphylococcus aureus, 0.03 µg/mL (≈ 0.0457 µM). The Ratio with Acinetobacter baumannii [6] is 4; in the data set with Acinetobacter baumannii [7], 4; in data set [9] it was above 4. In addition, in the data set on Acinetobacter baumannii [10], the result was Active.
Take `COc1cc2c(cc1OCCCC(=O)Nc1cc(C(=O)Nc3ccc4oc(C(=O)N5CCSCC5)cc4c3)n(C)c1)N=C[C@@H]1CCCN1C2=O`: the MIC is 128 µg/mL with Klebsiella pneumoniae [11]; above 128 µg/mL in the data set with Klebsiella pneumoniae [12]; 8 µg/mL with Klebsiella pneumoniae [13]; 4 µg/mL (≈ 5.72 µM) in the data set with Acinetobacter baumannii [14]; above 128 µg/mL in the data set with Klebsiella pneumoniae [15]; 128 µg/mL (≈ 183 µM) in the data set with Klebsiella pneumoniae [16]. Besides, the MIC was 32 µg/mL in the data set with Klebsiella pneumoniae [19]; 1 µg/mL (≈ 1.43 µM) with Klebsiella pneumoniae [20]; 4 µg/mL (≈ 5.72 µM) against Acinetobacter baumannii [23]; 0.5 µg/mL in the data set with Klebsiella pneumoniae [26]; 4 µg/mL in the data set with Acinetobacter baumannii [28]; 4 µg/mL (≈ 5.72 µM) in the data set with Acinetobacter baumannii [29]. Further, the MIC amounted to 4 µg/mL in the data set on Klebsiella pneumoniae [30]; 32 µg/mL (≈ 45.8 µM) against Klebsiella pneumoniae [33]; 4 µg/mL (≈ 5.72 µM) in the data set on Acinetobacter baumannii [34]; 64 µg/mL in the data set on Klebsiella pneumoniae [35]; 128 µg/mL with Klebsiella pneumoniae [36]. In data set [17], the solubility entry is “Insoluble”. Further, the outcome in the data set on Acinetobacter baumannii [18], in the data set with Klebsiella pneumoniae [27], in the data set on Klebsiella pneumoniae [37] and with Acinetobacter baumannii [38] was Active. Further, the Ratio with Klebsiella pneumoniae [21], in the data set with Klebsiella pneumoniae [24], with Klebsiella pneumoniae [25], with Klebsiella pneumoniae [31] and with Klebsiella pneumoniae [32] was 4 throughout. Besides, in the data set with Klebsiella pneumoniae [22], the outcome was inactive.
